Tests used:
[1] = molecular target: Human recombinant Acetyl-CoA Carboxylase 1 (ACC1) (Homo sapiens, UniProt Q13085); test: Assay Y: ACC1 inhibition, inorganic phosphate (Malachite Green); format: biochemical; conditions: Assay Y: room temperature, 3 hr, 15 min preincubation
Outline: (§1)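 Enzyme preincubated with compound 15 min before substrate addition; reaction run 3 h, then phosphate detected with Malachite Green at 670 nm after 10 min at room temperature. Triplicate 10-point titrations; IC50 by non-linear four-parameter curve fitting.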

[2] = molecular target: Human recombinant Acetyl-CoA Carboxylase 2 (ACC2) (Homo sapiens, UniProt O00763); test: Assay Y: ACC2 inhibition, inorganic phosphate (Malachite Green); format: biochemical; conditions: Assay Y: room temperature, 3 hr, 15 min preincubation
Sequence of Human recombinant Acetyl-CoA Carboxylase 2 (ACC2) (O00763 whole entry): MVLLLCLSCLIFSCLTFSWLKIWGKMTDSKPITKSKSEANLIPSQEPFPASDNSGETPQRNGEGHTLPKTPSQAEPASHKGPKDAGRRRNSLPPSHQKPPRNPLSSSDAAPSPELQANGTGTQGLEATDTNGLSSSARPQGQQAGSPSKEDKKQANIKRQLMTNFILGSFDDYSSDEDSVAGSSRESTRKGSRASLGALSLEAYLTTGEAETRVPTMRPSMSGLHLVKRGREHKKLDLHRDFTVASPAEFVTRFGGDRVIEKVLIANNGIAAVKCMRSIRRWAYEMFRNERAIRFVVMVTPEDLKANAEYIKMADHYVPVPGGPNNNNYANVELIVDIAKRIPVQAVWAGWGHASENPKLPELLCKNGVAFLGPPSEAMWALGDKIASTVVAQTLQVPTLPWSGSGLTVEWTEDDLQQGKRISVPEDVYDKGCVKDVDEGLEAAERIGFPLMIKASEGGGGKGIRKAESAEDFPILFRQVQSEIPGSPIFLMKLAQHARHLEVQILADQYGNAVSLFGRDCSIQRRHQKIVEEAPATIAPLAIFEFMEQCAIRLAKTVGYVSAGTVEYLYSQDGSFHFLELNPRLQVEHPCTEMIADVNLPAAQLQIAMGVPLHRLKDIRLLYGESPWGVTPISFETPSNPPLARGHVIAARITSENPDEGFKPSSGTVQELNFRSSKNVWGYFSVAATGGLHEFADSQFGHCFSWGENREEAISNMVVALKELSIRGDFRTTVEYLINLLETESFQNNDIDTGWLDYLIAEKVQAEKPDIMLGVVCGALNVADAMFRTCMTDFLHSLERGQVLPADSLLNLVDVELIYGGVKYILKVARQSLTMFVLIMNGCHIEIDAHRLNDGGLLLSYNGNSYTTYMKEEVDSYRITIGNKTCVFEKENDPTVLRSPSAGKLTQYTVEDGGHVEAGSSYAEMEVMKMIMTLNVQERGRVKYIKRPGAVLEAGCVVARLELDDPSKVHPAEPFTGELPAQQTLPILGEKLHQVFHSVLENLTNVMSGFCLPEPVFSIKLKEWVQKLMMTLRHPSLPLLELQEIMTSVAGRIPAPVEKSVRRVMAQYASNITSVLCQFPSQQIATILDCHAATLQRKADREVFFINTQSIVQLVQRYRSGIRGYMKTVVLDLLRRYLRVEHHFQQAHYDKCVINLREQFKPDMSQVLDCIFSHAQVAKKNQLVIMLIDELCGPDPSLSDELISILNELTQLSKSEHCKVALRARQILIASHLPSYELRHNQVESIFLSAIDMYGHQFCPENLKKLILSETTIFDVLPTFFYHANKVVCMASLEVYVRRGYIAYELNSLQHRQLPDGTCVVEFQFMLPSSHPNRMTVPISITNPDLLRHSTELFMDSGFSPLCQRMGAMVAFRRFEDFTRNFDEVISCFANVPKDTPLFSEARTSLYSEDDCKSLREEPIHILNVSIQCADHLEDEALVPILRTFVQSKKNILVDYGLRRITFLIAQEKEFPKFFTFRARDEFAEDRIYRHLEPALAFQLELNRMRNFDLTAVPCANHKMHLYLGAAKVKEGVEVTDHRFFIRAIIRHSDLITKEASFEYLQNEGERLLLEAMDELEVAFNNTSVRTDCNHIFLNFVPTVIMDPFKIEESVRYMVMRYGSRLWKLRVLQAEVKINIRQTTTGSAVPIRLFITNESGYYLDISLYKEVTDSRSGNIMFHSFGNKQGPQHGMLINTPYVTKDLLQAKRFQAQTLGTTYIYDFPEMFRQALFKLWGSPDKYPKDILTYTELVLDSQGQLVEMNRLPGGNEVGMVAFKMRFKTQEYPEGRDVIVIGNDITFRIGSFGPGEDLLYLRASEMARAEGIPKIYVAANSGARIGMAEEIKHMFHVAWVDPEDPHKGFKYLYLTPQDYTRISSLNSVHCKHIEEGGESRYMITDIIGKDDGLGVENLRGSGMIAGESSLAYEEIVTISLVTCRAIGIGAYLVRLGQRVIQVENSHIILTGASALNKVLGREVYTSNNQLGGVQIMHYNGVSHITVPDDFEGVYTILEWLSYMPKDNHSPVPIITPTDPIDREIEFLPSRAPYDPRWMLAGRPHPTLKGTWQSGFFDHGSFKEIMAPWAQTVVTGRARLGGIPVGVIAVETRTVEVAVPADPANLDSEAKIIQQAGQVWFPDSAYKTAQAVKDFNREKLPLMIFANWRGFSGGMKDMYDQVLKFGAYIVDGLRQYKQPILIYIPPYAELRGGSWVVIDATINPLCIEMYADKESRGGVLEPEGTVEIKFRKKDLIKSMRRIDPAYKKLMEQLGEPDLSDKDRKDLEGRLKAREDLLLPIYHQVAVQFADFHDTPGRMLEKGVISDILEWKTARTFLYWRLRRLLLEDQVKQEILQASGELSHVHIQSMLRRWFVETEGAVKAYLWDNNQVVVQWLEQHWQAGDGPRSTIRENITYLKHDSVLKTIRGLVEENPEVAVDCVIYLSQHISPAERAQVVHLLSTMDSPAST
Outline: as §1

CN(C[C@H]1CC[C@H](CNC(=O)OC(C)(C)C)CC1)S(=O)(=O)c1ccc2ccccc2c1 [Example 88, tert-Butyl [(trans-4-{[methyl(2-naphthylsulfonyl)amino]methyl}cyclohexyl)methyl]-carbamate]
IC50 [1]: > 20000 nM | IC50 [2]: 2450 nM

Cc1nc(-c2ccc(S(=O)(=O)N(C)C[C@H]3CC[C@H](CNC(=O)OC(C)(C)C)CC3)s2)cs1 [Example 89, tert-Butyl ({trans-4-[(methyl {[5-(2-methyl-1,3-thiazol-4-yl)-2-thienyl]sulfonyl}-amino)methyl]cyclohexyl}methyl)carbamate]
IC50 [1]: > 20000 nM | IC50 [2]: 3030 nM

CCN(C[C@H]1CC[C@H](CNC(=O)OC(C)(C)C)CC1)S(=O)(=O)c1ccc(-c2csc(C)n2)s1 [Example 90, tert-Butyl ({trans-4-[(ethyl {[5-(2-methyl-1,3-thiazol-4-yl)-2-thienyl]sulfonyl}amino)-methyl]cyclohexyl}methyl)carbamate]
IC50 [1]: > 20000 nM | IC50 [2]: 2010 nM

CN(C[C@H]1CC[C@H](CNC(=O)OC(C)(C)C)CC1)C(=O)c1cc(-c2ccccc2)nc2ccccc12 [Example 91, tert-Butyl {[trans-4-({methyl[(2-phenylquinolin-4-yl)carbonyl]amino}methyl)cyclo-hexyl]methyl}carbamate]
IC50 [1]: 4820 nM | IC50 [2]: 2300 nM

CC(C)(C)OC(=O)NC[C@H]1CC[C@H](CNC(=O)c2cc(-c3ccc(CN)cc3)nc3ccccc23)CC1 [Example 92, tert-Butyl [(trans-4-{[({2-[4-(aminomethyl)phenyl]quinolin-4-yl}carbonyl)amino]-methyl}cyclohexyl)methyl]carbamate acetate]
IC50 [1]: 260 nM | IC50 [2]: 50 nM

CC(C)(C)OC(=O)NC[C@H]1CC[C@H](CNC(=O)c2cc(-c3ccc(C(=O)O)cc3)nc3ccccc23)CC1 [Example 93, 4-(4-{[(trans-4-{[(tert-Butoxycarbonyl)amino]methyl}cyclohexyl)methyl]carbamoyl}-quinolin-2-yl)benzoic acid]
IC50 [1]: 1850 nM | IC50 [2]: 170 nM

CC(C)(C)OC(=O)NC[C@H]1CC[C@H](CNC(=O)c2cc(-c3cc[n+]([O-])cc3)nc3ccccc23)CC1 [Example 94, tert-Butyl ({trans-4-[({[2-(1-oxidopyridin-4-yl)quinolin-4-yl]carbonyl}amino)methyl]-cyclohexyl}methyl)carbamate]
IC50 [1]: 5470 nM | IC50 [2]: 930 nM

CC(C)(C)OC(=O)NC[C@H]1CC[C@H](CNS(=O)(=O)c2cc(-c3ccccc3)nc3ccccc23)CC1 [Example 95, tert-Butyl {[trans-4-({[(2-phenylquinolin-4-yl)sulfonyl]amino}methyl)cyclohexyl]-methyl}carbamate]
IC50 [1]: 2140 nM | IC50 [2]: 980 nM

CC(C)(C)OC(=O)NC[C@H]1CC[C@H](CNC(=O)c2cccc3ccccc23)CC1 [Example 96, tert-Butyl ({trans-4-[(1-naphthoylamino)methyl]cyclohexyl}methyl)carbamate]
IC50 [1]: > 20000 nM | IC50 [2]: 3640 nM

CC(C)(C)NC(=O)NC[C@H]1CC[C@H](CNC(=O)c2cc(-c3ccncc3)nc3ccccc23)CC1 [Example 97, N-[(trans-4-{[(tert-Butylcarbamoyl)amino]methyl}cyclohexyl)methyl]-2-pyridin-4-ylquinoline-4-carboxamide]
IC50 [1]: 18300 nM | IC50 [2]: 6140 nM

CC(C)(C)OC(=O)NC[C@H]1CC[C@H](CNC(=O)c2cc(-c3cccc(CNS(C)(=O)=O)c3)nc3ccccc23)CC1 [Example 98, tert-Butyl ({trans-4-[({[2-(3-{[(methylsulfonyl)amino]methyl}phenyl)quinolin-4-yl]carbonyl}amino)methyl]cyclohexyl}methyl)carbamate]
IC50 [1]: 1370 nM | IC50 [2]: 70 nM

CC(C)(C)OC(=O)NC[C@H]1CC[C@H](CNC(=O)c2cc(-c3cccc(CNC(N)=O)c3)nc3ccccc23)CC1 [Example 99, tert-Butyl {[trans-4-({[(2-{3-[(carbamoylamino)methyl]phenyl}quinolin-4-yl)-carbonyl]amino}methyl)cyclohexyl]methyl}carbamate]
IC50 [1]: 780 nM | IC50 [2]: 100 nM

CC(=O)NCc1cccc(-c2cc(C(=O)NC[C@H]3CC[C@H](CNC(=O)OC(C)(C)C)CC3)c3ccccc3n2)c1 [Example 100, tert-Butyl [(trans-4-{[({2-[3-(acetamidomethyl)phenyl]quinolin-4-yl}carbonyl)amino]-methyl}cyclohexyl)methyl]carbamate]
IC50 [1]: 590 nM | IC50 [2]: 110 nM

COC(=O)NCc1cccc(-c2cc(C(=O)NC[C@H]3CC[C@H](CNC(=O)OC(C)(C)C)CC3)c3ccccc3n2)c1 [Example 101, Methyl [3-(4-{[(trans-4-{[(tert-butoxycarbonyl)amino]methyl}cyclohexyl)methyl]-carbamoyl}quinolin-2-yl)benzyl]carbamate]
IC50 [1]: 2210 nM | IC50 [2]: 150 nM

CC(C)(C)OC(=O)NC[C@H]1CC[C@H](CNC(=O)c2cc(-c3ccc(CCN)cc3)nc3ccccc23)CC1 [Example 102, tert-Butyl [(trans-4-{[({2-[4-(2-aminoethyl)phenyl]quinolin-4-yl}carbonyl)amino]-methyl}cyclohexyl)methyl]carbamate]
IC50 [1]: 170 nM | IC50 [2]: 20 nM

CC(=O)NCc1ccc(-c2cc(C(=O)NC[C@H]3CC[C@H](CNC(=O)OC(C)(C)C)CC3)c3ccccc3n2)cc1 [Example 103, tert-Butyl [(trans-4-{[({2-[4-(acetamidomethyl)phenyl]quinolin-4-yl}carbonyl)-amino]methyl}cyclohexyl)methyl]carbamate]
IC50 [1]: 200 nM | IC50 [2]: 40 nM

COC(=O)NCc1ccc(-c2cc(C(=O)NC[C@H]3CC[C@H](CNC(=O)OC(C)(C)C)CC3)c3ccccc3n2)cc1 [Example 104, Methyl [4-(4-{[(trans-4-{[(tert-butoxycarbonyl)amino]methyl}cyclohexyl)methyl]-carbamoyl}quinolin-2-yl)benzyl]carbamate]
IC50 [1]: 1600 nM | IC50 [2]: 110 nM

CC(C)(C)OC(=O)NC[C@H]1CC[C@H](CNC(=O)c2cc(-c3ccc(CNC(N)=O)cc3)nc3ccccc23)CC1 [Example 105, tert-Butyl {[trans-4-({[(2-{4-[(carbamoylamino)methyl]phenyl}quinolin-4-yl)carbonyl]amino}methyl)cyclohexyl]methyl}carbamate]
IC50 [1]: 110 nM | IC50 [2]: 30 nM

CC(C)(C)OC(=O)NC[C@H]1CC[C@H](CNC(=O)c2cc(-c3ccc(CNS(C)(=O)=O)cc3)nc3ccccc23)CC1 [Example 106, tert-Butyl ({trans-4-[({[2-(4-{[(methylsulfonyl)amino]methyl}phenyl)quinolin-4-yl]carbonyl}amino)methyl]cyclohexyl}methyl)carbamate]
IC50 [1]: 430 nM | IC50 [2]: 70 nM

CC(C)(C)OC(=O)NC[C@H]1CC[C@H](CNC(=O)c2cc(-c3ccc(CC(=O)O)cc3)nc3ccccc23)CC1 [Example 107, [4-(4-{[(trans-4-{[(tert-Butoxycarbonyl)amino]methyl}cyclohexyl)methyl]-carbamoyl}quinolin-2-yl)phenyl]acetic Acid]
IC50 [1]: 2620 nM | IC50 [2]: 210 nM

CC(C)(C)OC(=O)NC[C@H]1CC[C@H](CNC(=O)c2cc(-c3cccc(C(=O)O)c3)nc3ccccc23)CC1 [Example 108, 3-(4-{[(trans-4-{[(tert-Butoxycarbonyl)amino]methyl}cyclohexyl)methyl]-carbamoyl}quinolin-2-yl)benzoic Acid]
IC50 [1]: 7870 nM | IC50 [2]: 450 nM

CN1CCN(c2ccc(-c3cc(C(=O)NC[C@H]4CC[C@H](CNC(=O)OC5CCOCC5)CC4)c4ccccc4n3)cn2)CC1 [Example 109, Tetrahydro-2H-pyran-4-yl [(trans-4-{[({2-[6-(4-methylpiperazin-1-yl)pyridin-3-yl]quinolin-4-yl}carbonyl)amino]methyl}cyclohexyl)methyl]carbamate]
IC50 [1]: 1710 nM | IC50 [2]: 210 nM

CN1CCC(OC(=O)NC[C@H]2CC[C@H](CNC(=O)c3cc(-c4ccc(N5CCN(C)CC5)nc4)nc4ccccc34)CC2)CC1 [Example 110, 1-Methylpiperidin-4-yl-[(trans-4-{[({2-[6-(4-methylpiperazin-1-yl)pyridin-3-yl]quinolin-4-yl}carbonyl)amino]methyl}cyclohexyl)methyl]carbamate]
IC50 [1]: > 20000 nM | IC50 [2]: 4370 nM

CN1CCN(c2ccc(-c3cc(C(=O)NC[C@H]4CC[C@H](CNC(=O)O[C@H]5CCOC5)CC4)c4ccccc4n3)cn2)CC1 [Example 116, (3S)-Tetrahydrofuran-3-yl-[(trans-4-{[({2-[6-(4-methylpiperazin-1-yl)pyridin-3-yl]quinolin-4-yl}carbonyl)amino]methyl}cyclohexyl)methyl]carbamate]
IC50 [1]: 1260 nM | IC50 [2]: 180 nM

CN1CCN(c2ccc(-c3cc(C(=O)NC[C@H]4CC[C@H](CNC(=O)OCC(F)F)CC4)c4ccccc4n3)cn2)CC1 [Example 117, 2,2-Difluoroethyl[(trans-4-{[({2-[6-(4-methylpiperazin-1-yl)pyridin-3-yl]quinolin-4-yl}carbonyl)amino]methyl}cyclohexyl)methyl]carbamate]
IC50 [1]: 960 nM | IC50 [2]: 410 nM

CN1CCN(c2ccc(-c3cc(C(=O)NC[C@H]4CC[C@H](CNC(=O)OCCF)CC4)c4ccccc4n3)cn2)CC1 [Example 118, 2-Fluoroethyl[(trans-4-{[({2-[6-(4-methylpiperazin-1-yl)pyridin-3-yl]quinolin-4-yl}carbonyl)amino]methyl}cyclohexyl)methyl]carbamate]
IC50 [1]: 1640 nM | IC50 [2]: 650 nM

CCOC(=O)NC[C@H]1CC[C@H](CNC(=O)c2cc(-c3ccc(N4CCN(C)CC4)nc3)nc3ccccc23)CC1 [Example 119, Ethyl[(trans-4-{[({2-[6-(4-methylpiperazin-1-yl)pyridin-3-yl]quinolin-4-yl}carbonyl)amino]methyl}cyclohexyl)methyl]carbamate]
IC50 [1]: 2260 nM | IC50 [2]: 720 nM

From patent US20090306133A1, “New Acetyl Coenzyme A Carboxylase (ACC) Inhibitors And Uses In Treatments Of Obesity And Diabetes Mellitus - 087” (ASTRAZENECA AB, priority 2007, published 2009)
